In US8828942B2, “Means for treating synucleinopathies” (Affiris AG, priority 2009, dated 2014):
Entries after “also recorded” stand apart in the source; their conditions may differ.

Key:
[1] = tested on: monoclonal antibody 12-9-9; test: In vitro inhibition assay (ELISA); format: binding, mouse; design: key: 0: no competition of 12-9-9 detectable in ELISA; 1: weak competition: competition of mimotope weaker compared to the minimal original sequence p5436; 2: strong competition: competition of mimotope similar to the minimal original sequence p5436; conditions: competition capacity in ELISA, peptide 400 μg/ml to 3 μg/ml, plates coated with p5436 and p4446
Procedure: Different amounts of peptides (concentrations ranging from 400 μg/ml to 3 μg/ml (serial dilutions), derived from Phage Display were incubated with the monoclonal antibody that was used for the screening procedure. Peptides diminishing subsequent binding of the antibody to the original human alpha-synuclein epitope (p5436) and the human alpha-synuclein protein (p4446) coated on ELISA plates were considered as inhibiting in this assay.

[2] = tested on: monoclonal antibody 12-9-9; test: In vitro binding assay (ELISA) with monoclonal antibody 12-9-9; design: species or system mouse; key to Binding: 0: no binding to 12-9-9 detectable in ELISA; 1: weak binding: binding of mimotope weaker compared to the minimal original sequence p5436; 2: strong binding: binding of mimotope similar to the minimal original sequence p5436; conditions: for Binding: binding capacity to 12-9-9 in ELISA, peptide-BSA coated (1 μM), compared with p5436; for detection/binding by monoclonal antibody 12-9-9 in ELISA: result in words
Text: A monoclonal antibody derived from the fusion “AFFiRiS 6”: Balb/c mice (Charles River) were immunized with original alpha-synuclein epitope LGKNEEGAPQ-C (SEQ ID NO:3) coupled to BTG (bovine thyroglobuline) and CFA (complete Freund's adjuvant; first injection) as well as IFA (incomplete Freund's adjuvant; 3 booster injections) as adjuvant. LGKNEEGAPQ-peptide-specific (SEQ ID NO: 203) antibody-producing hybridomas are detected by ELISA (LGKNEEGAPQC-peptide-coated (SEQ ID NO: 3)ELISA plates). Human alpha-synuclein (recombinant protein, p4446) is used as positive control peptide: hybridomas recognizing the recombinant protein immobilized on ELISA plates are included because they are binding both peptide and full length alpha-synuclein specifically. […] The Hybridoma clone (12-9-9; IgG1, kappa) was analysed for specific detection of the natural human alpha-synuclein epitope LGKNEEGAPQ. (SEQ ID NO: 203). 12-9-9 recognizes the injected epitope as well as full length alpha-synuclein protein (recombinant protein; obtained from rPeptide, Bogart, Ga., USA) in ELISA (see FIG. 2). […] Thus the minimal required epitope for binding has been defined as KNEEGAP (SEQ ID NO: 139).
Peptides derived from Phage Display as well as N-terminally truncated variants thereof were coupled to BSA and bound to ELISA plates (1 μM) and subsequently incubated with the monoclonal antibody that was used for the screening procedure to analyse binding capacity of identified peptides (see FIG. 4).

[3] = tested on: recombinant human alpha-synuclein protein; test: In vivo testing of mimotopes: serum titer against alpha-synuclein (ELISA); conditions: mice immunized with peptide-KLH, alum, OD halfmax
Procedure: (§1) Inhibiting as well as non-inhibiting peptides were coupled to KLH and injected into mice (wildtype C57/B16 or BalbC mice; subcutaneous injection into the flank) together with an appropriate adjuvant (aluminium hydroxide). Animals were vaccinated 3 times in biweekly intervals and sera were taken biweekly as well. Titers to injected peptides as well as to an irrelevant peptide were determined with every serum. Titers against the recombinant human alpha-synuclein protein and recombinant human beta-synuclein were determined starting with Serum 2 respectively. In general sera were analysed by reaction against peptides coupled to Bovine Serum Albumin (BSA) and recombinant full length proteins which were immobilised on ELISA plates. Titers were determined using anti mouse IgG specific antibodies. For examples of immunogenicity against injected peptide and alpha-synuclein see Table 5 and Table 6.
(§2) Female C57/B16 mice or BalbC, 5-6 mice per group, were subcutaneously immunized with 30 μg peptide coupled to KLH. Control groups were injected with PBS or the original epitope. As adjuvant alum was used. The peptides administered were all able to bind to monoclonal antibodies specifically binding aa100-109 of human alpha-synuclein although some of the peptides did inhibit the binding of the original epitope to its parental antibody in vitro only weakly (in an in vitro inhibition assay). The in vitro ELISA assay to determine the antibody titer was performed with sera of single mice (see Tab. 5) after each vaccination in a two week interval. The wells of the ELISA plate were coated with mimotope-BSA conjugates. The positive control was performed by reaction of the parental antibody with the respective mimotope-BSA conjugate. The detection was performed with anti-mouse IgG. Additionally, recombinant proteins were immobilised on ELISA plates and sera reacted accordingly. For all mimotopes tested in C57/B16 mice or BalbC, antibodies reacting to the individual injected peptide could be detected after repeated vaccination. Although not all mice induced higher titer against alpha-synuclein (see tab. 5 for examples).

[4] = In vivo testing of mimotopes: serum titer against injected peptide (ELISA); conditions: mice, 30 μg peptide coupled to KLH, alum, s.c.; titer by ELISA as OD halfmax
Procedure: as §1, §2

Row | Sequence | Competition [1] | Binding [2] | class of immunogenicity: a Syn [3] | Titer in animals OD halfmax injected pep. [4] | detection/binding by monoclonal antibody 12-9-9 in ELISA [2]
1 | RNEEGAPC [p5443, mimotope] | 2 | 2 | 1 (peptides inducing an immune response with OD halfmax between 1000 and 51.) | 9000 | –
2 | MGKGEEGYPQC [p4454, reference compound] | – | 2 | 1 (peptides inducing an immune response with OD halfmax between 1000 and 51.) | 17000 | –
3 | KNAEGAPC [p5439, mimotope] | 1 | 2 | 1 (peptides inducing an immune response with OD halfmax between 1000 and 51.) | 8000 | detected similarly
4 | KNDEGAPC [p5445, mimotope] | 2 | 2 | 2 (peptides inducing an immune response with OD halfmax higher than 1000.) | 26000 | –
5 | KSDEGAPC [p5600, mimotope] | 1 | 2 | 1 (peptides inducing an immune response with OD halfmax between 1000 and 51.) | – | –
6 | RNDEGAPC [p5587, mimotope] | 2 | 2 | 1 (peptides inducing an immune response with OD halfmax between 1000 and 51.) | – | –
7 | APSWKGEC [p5556, mimotope] | 1 | 2 | 0 (peptides inducing no immune response or a very low immune response with OD halfmax around 50 or lower.) | – | –
8 | LGKNEEGAPC [p5402, reference compound] | 2 | 2 | 2 (peptides inducing an immune response with OD halfmax higher than 1000.) | 20000 | retained full binding capacities
9 | KNEEGAPC [p5436, reference compound] | 2 | 2 | 2 (peptides inducing an immune response with OD halfmax higher than 1000.) | 10000 | detected similarly; also recorded: retained full binding capacities
